From patent publication US4820716A, “7-(1-Pyrrolidinyl)-quinolonecarboxylic acid derivatives” (Bayer Aktiengesellschaft, priority 1986, dated 1989)
≈ marks a conversion by molar mass, not a printed value. Like-named read-outs stand apart in the source and are kept apart here.

Tests used:
Test in all cases: MIC, agar dilution test (multipoint inoculator)
Type in all cases: cell-based
E. coli = settings: Escherichia coli, Isosensitest medium pH 7.2
From the text: (§1) *Agar dilution test (multipoint inoculator) Isosensitest medium pH 7.2

Klebsiella pneum. = tested on: Klebsiella pneum.
From the text: as §1

Proteus mir. = settings: Isosensitest medium pH 7.2
From the text: as §1

Proteus morg. = settings: Isosensitest medium pH 7.2
From the text: as §1

Proteus vulg. = tested on: Proteus vulg.
From the text: as §1

Providencia stuartei = tested on: Providencia stuartei
From the text: as §1

Psdm. aeruginosa = settings: Pseudomonas aeruginosa, Isosensitest medium pH 7.2
From the text: as §1

Serratia marc. = settings: strain 16040, Isosensitest medium pH 7.2
From the text: as §1

Staph. aureus = settings: Staphylococcus aureus, Isosensitest medium pH 7.2
From the text: as §1

Strepto. faecalis = settings: Isosensitest medium pH 7.2
From the text: as §1

[1] = pH 7.2, strain 455/7, read-out: MIC
[2] = pH 7.2, strain Neumann, read-out: MIC
[3] = pH 7.2, strain 57USA, Isosensitest medium pH 7.2, read-out: MIC
[4] = pH 7.2, strain 63, Isosensitest medium pH 7.2, read-out: MIC
[5] = pH 7.2, strain 6179, Isosensitest medium pH 7.2, read-out: MIC
[6] = pH 7.2, strain 6318, Isosensitest medium pH 7.2, read-out: MIC
[7] = pH 7.2, strain 8085, Isosensitest medium pH 7.2, read-out: MIC
[8] = pH 7.2, strain 8175, read-out: MIC
[9] = pH 7.2, strain 8223, read-out: MIC
[10] = strain 1017, Isosensitest medium pH 7.2, read-out: MIC
[11] = pH 7.2, strain 12012, Isosensitest medium pH 7.2
[12] = pH 7.2, strain 12052, Isosensitest medium pH 7.2

Compound	MIC (E. coli; [1]) [µg/mL]	MIC (E. coli; pH 7.2, strain 4418) [µg/mL]	MIC (E. coli; pH 7.2, strain A261) [µg/mL]	MIC (E. coli; [2]) [µg/mL]	MIC (E. coli; pH 7.2, strain T7) [µg/mL]	MIC (Klebsiella pneum.; [3]) [µg/mL]	MIC (Klebsiella pneum.; [4]) [µg/mL]	MIC (Klebsiella pneum.; [5]) [µg/mL]	MIC (Klebsiella pneum.; [6]) [µg/mL]	MIC (Klebsiella pneum.; [7]) [µg/mL]	MIC (Providencia stuartei; [11]) [µg/mL]	MIC (Providencia stuartei; [12]) [µg/mL]	MIC (Psdm. aeruginosa; pH 7.2, strain Ellsworth) [µg/mL]	MIC (Psdm. aeruginosa; pH 7.2, strain Walter) [µg/mL]	MIC (Serratia marc.) [µg/mL]	MIC (Staph. aureus; pH 7.2, strain 133) [µg/mL]	MIC (Staph. aureus; pH 7.2, strain 1756) [µg/mL]	MIC (Staph. aureus; pH 7.2, strain FK422) [µg/mL]	MIC (Strepto. faecalis; pH 7.2, strain 9790) [µg/mL]	MIC (Strepto. faecalis; pH 7.2, strain 27101) [µg/mL]	other results
O=C(O)c1cn(C2CC2)c2cc(N3CCC(O)C3)c(F)cc2c1=O (racemic) [Example 1, 1-cyclopropyl-6-fluoro-1,4-dihydro-7-(3-hydroxy-1-pyrrolidinyl)-4-oxo-3-quinolinecarboxylic acid]	32 (≈ 96.3 µM)	< 0.015	< 0.015	≤ 0.015	< 0.015	0.125 (≈ 0.376 µM)	< 0.015	0.125 (≈ 0.376 µM)	0.06 (≈ 0.181 µM)	≤ 0.015	≤ 0.015	32 (≈ 96.3 µM)	0.125 (≈ 0.376 µM)	1 (≈ 3.01 µM)	32 (≈ 96.3 µM)	≤ 0.015	≤ 0.015	≤ 0.015	0.125 (≈ 0.376 µM)	0.125 (≈ 0.376 µM)	MIC (Proteus mir.; [8]): 0.06 µg/mL (≈ 0.181 µM); MIC (Proteus mir.; [9]): 2 µg/mL (≈ 6.02 µM); MIC (Proteus morg.; strain 932, read-out: MIC): ≤ 0.015 µg/mL; MIC (Proteus morg.; strain 11006): ≤ 0.015 µg/mL; MIC (Proteus vulg.; [10]): ≤ 0.015 µg/mL
O=C(O)c1cn(C2CC2)c2cc(N3CCNCC3)c(F)cc2c1=O [Ciprofloxacin, 1-cyclopropyl-6-fluoro-1,4-dihydro-4-oxo-7-(1-piperazinyl)-3-quinolinecarboxylic acid, reference compound]	1 (≈ 3.02 µM)	–	–	≤ 0.015	–	–	–	–	–	–	≤ 0.015	16 (≈ 48.3 µM)	0.06 (≈ 0.181 µM)	0.5 (≈ 1.51 µM)	8 (≈ 24.1 µM)	0.25 (≈ 0.754 µM)	0.25 (≈ 0.754 µM)	0.5 (≈ 1.51 µM)	0.5 (≈ 1.51 µM)	0.25 (≈ 0.754 µM)	MIC (E. coli; pH 7.2, strain 4418, read-out: MIC): ≤ 0.015 µg/mL; MIC (E. coli; pH 7.2, strain A261, read-out: MIC): ≤ 0.015 µg/mL; MIC (E. coli; pH 7.2, strain T7, read-out: MIC): ≤ 0.015 µg/mL; MIC (Klebsiella pneum.; pH 7.2, strain 57USA, Isosensitest medium pH 7.2): ≤ 0.015 µg/mL; MIC (Klebsiella pneum.; pH 7.2, strain 63, Isosensitest medium pH 7.2): 0.03 µg/mL (≈ 0.0905 µM); MIC (Klebsiella pneum.; pH 7.2, strain 6318, Isosensitest medium pH 7.2): 0.06 µg/mL (≈ 0.181 µM); MIC (Klebsiella pneum.; pH 7.2, strain 8085, Isosensitest medium pH 7.2): ≤ 0.015 µg/mL; MIC (Proteus mir.; pH 7.2, strain 8175): 0.06 µg/mL (≈ 0.181 µM); MIC (Proteus mir.; pH 7.2, strain 8223): 4 µg/mL (≈ 12.1 µM); MIC (Proteus morg.; pH 7.2, strain 932): < 0.015 µg/mL; MIC (Proteus morg.; pH 7.2, strain 11006): ≤ 0.015 µg/mL; MIC (Proteus vulg.; pH 7.2): ≤ 0.015 µg/mL
O=C(O)c1cn(C2CC2)c2c(Cl)c(N3CCC(O)C3)c(F)cc2c1=O (centres unmarked) [Example 3, 8-chloro-1-cyclopropyl-7-fluoro-1,4-dihydro-7-(3-hydroxy-1-pyrrolidinyl)-4-oxo-3-quinolinecarboxylic acid]	0.25 (≈ 0.682 µM)	≤ 0.015	≤ 0.015	≤ 0.015	≤ 0.015	≤ 0.015	≤ 0.015	< 0.015	≤ 0.015	≤ 0.015	≤ 0.015	1 (≈ 2.73 µM)	≤ 0.015	0.25 (≈ 0.682 µM)	1 (≈ 2.73 µM)	≤ 0.015	≤ 0.015	≤ 0.015	≤ 0.015	≤ 0.015	MIC (Proteus mir.; [8]): ≤ 0.015 µg/mL; MIC (Proteus mir.; [9]): 0.06 µg/mL (≈ 0.164 µM); MIC (Proteus morg.; strain 932, read-out: MIC): ≤ 0.015 µg/mL; MIC (Proteus morg.; strain 11006): ≤ 0.015 µg/mL; MIC (Proteus vulg.; [10]): ≤ 0.015 µg/mL
